In patent US20230406847A1, “LIGANDS OF PROSTATE SPECIFIC MEMBRANE ANTIGEN (PSMA) CONTAINING HETEROAROMATIC LINKER BUILDING BLOCKS” (ABX ADVANCED B[…] GMBH, priority 2020, published 2023):

Test system: human PSMA+ LNCaP cells
Assay: Internalization of radiolabelled compounds in LNCaP cells
Format: cell-based
Description: Gallium labeling was carried out using 90 μL HEPES in water (580 mg/mL; ultrapure-grade, Merck, Darmstadt, Germany) mixed with 40 μL of [^68Ga]GaCl3. The pH of the mixture was adjusted to 3.8 to 4.1 with NaOH (30%; ultrapure-grade, Merck, Darmstadt, Germany). Subsequently 1.0 nmol of a synthesized compound of Example 3 to 10 was added and incubated at 98 ° C. for 10 to 15 minutes. For the competitive cell assay, the precursor amount was diminished to 0.5 nmol.
Lutetium labelling was carried out using 115 μL of sodium acetate buffer (400 mM, pH mixed with 10 to 20 MBq [177Lu]LuCl3. Subsequently, 1.0 nmol of a synthesized compound of Example 3 to 10 was added and incubated at 98 ° C. for 20 to 25 minutes.
Cell binding studies were performed using human PSMA+ LNCaP cells (ATCC CRL-1740) cultured in RPMI 1640 medium supplemented with 10% fetal bovine serum (Sera plus, PAN Biotech) and 2 mmol/l stable glutamine (PAN Biotech). Cells were grown at 37° C. in an incubator with humidified air and 5% CO2. Trypsin/EDTA 0.5%/0.02% in PBS (PAN Biotech) was used to harvest cells.
1×10^5 LNCaP cells were seeded in poly-L-lysine coated 24-well-plates for 24 h at 37° C. humidified air with 5% CO2. After removing the medium, cells were incubated with radiolabelled compounds of Example 11 (30 nM) for 45 minutes at 37° C. and at 4° C. respectively. For determination of specific cell uptake, cells were blocked with PMPA (Tocris) at a concentration of 500 μM. The cells were washed three times with 1 ml ice-cold PBS, twice with 500 μl glycine-HCl (50mM; pH 2.8) for 5 min at rt to remove the surface-bound radioactivity and with 1 ml ice-cold PBS. Subsequent the cells were lysed with 0.5 ml 0.3M NaOH. The internalized and the surface-bound fractions were measured in a gammacounter.

[1] = radiolabelled compounds (30 nM), 45 minutes, 37° C. and 4° C., LNCaP cells, specific uptake by blocking with PMPA 500 μM

| SMILES | internalisation rate (%) [1] | internalisation rate (%) (0.75 h, 0.03 µM) |
| --- | --- | --- |
| O=C(O)CC[C@H](NC(=O)N[C@@H](CCCCNC(=O)[C@H](Cc1ccc2ccccc2c1)NC(=O)c1cc(CNC(=O)CN2CCN(CC(=O)O)CCN(CC(=O)O)CCN(CC(=O)O)CC2)on1)C(=O)O)C(=O)O [Example ABX288] | 33.2% | – |
| O=C(O)CC[C@H](NC(=O)N[C@@H](CCCCNC(=O)[C@H](Cc1ccc2ccccc2c1)NC(=O)c1cc(CNC(=O)[C@H](CCCCNc2ccc([N+](=O)[O-])cc2[N+](=O)[O-])NC(=O)CN2CCN(CC(=O)O)CCN(CC(=O)O)CCN(CC(=O)O)CC2)on1)C(=O)O)C(=O)O [Example ABX339] | 60.6% | – |
| O=C(O)CC[C@H](NC(=O)N[C@@H](CCCCNC(=O)[C@H](Cc1csc2ccccc12)NC(=O)c1cc(CNC(=O)[C@H](CCCCNc2ccc([N+](=O)[O-])cc2[N+](=O)[O-])NC(=O)CN2CCN(CC(=O)O)CCN(CC(=O)O)CCN(CC(=O)O)CC2)on1)C(=O)O)C(=O)O [Example ABX341] | 61.3% | – |
| Cc1nc(CNC(=O)CN2CCN(CC(=O)O)CCN(CC(=O)O)CCN(CC(=O)O)CC2)sc1C(=O)N[C@@H](Cc1ccc2ccccc2c1)C(=O)NCCCC[C@H](NC(=O)N[C@@H](CCC(=O)O)C(=O)O)C(=O)O [Example ABX271] | 37.8% | – |
| O=C(O)CC[C@H](NC(=O)N[C@@H](CCCCNC(=O)[C@H](Cc1csc2ccccc12)NC(=O)c1cc(CNC(=O)[C@H](CCCCNC(=O)c2ccc(I)cc2)NC(=O)CN2CCN(CC(=O)O)CCN(CC(=O)O)CCN(CC(=O)O)CC2)on1)C(=O)O)C(=O)O [Example ABX346] | 46.7% | – |
| O=C(O)CC[C@H](NC(=O)N[C@@H](CCCCNC(=O)[C@H](Cc1ccc2ccccc2c1)NC(=O)c1ccc(CNC(=O)CN2CCN(CC(=O)O)CCN(CC(=O)O)CCN(CC(=O)O)CC2)nc1)C(=O)O)C(=O)O [Example ABX289] | 55.7% | – |
| O=C(O)CC[C@H](NC(=O)N[C@@H](CCCCNC(=O)[C@H](Cc1ccc2ccccc2c1)NC(=O)c1ccc(CNC(=O)CN2CCN(CC(=O)O)CCN(CC(=O)O)CCN(CC(=O)O)CC2)s1)C(=O)O)C(=O)O [Example ABX272] | 41.4% | – |
| O=C(O)CC[C@H](NC(=O)N[C@@H](CCCCNC(=O)[C@H](Cc1ccc2ccccc2c1)NC(=O)[C@H]1CC[C@H](CNC(=O)CN2CCN(CC(=O)O)CCN(CC(=O)O)CCN(CC(=O)O)CC2)CC1)C(=O)O)C(=O)O [PSMA-617, (3S,10S,14S)-3-[(naphthalen-2-yl)methyl]-1,4,12-trioxo-1-[(1R,4S)-4-[[2-[4,7,10-tris(carboxymethyl)-1,4,7,10-etraazacyclododecan-1-yl]acetamido]methyl]cyclo-hexyl]-2,5,11 ,13-tetraazahexadecane-10,14,16-tricarboxylic acid, reference compound] | – | 31.1% |
| O=C(O)CC[C@H](NC(=O)N[C@@H](CCCCNC(=O)[C@H](Cc1csc2ccccc12)NC(=O)c1cc(CNC(=O)CN2CCN(CC(=O)O)CCN(CC(=O)O)CCN(CC(=O)O)CC2)on1)C(=O)O)C(=O)O [Example ABX338] | 40.8% | – |
